Measured values: article PMC3726002 (Bioorganic & medicinal chemistry letters, 2011)

Tests used:
α7 nAChR = α7 nAChR (Rattus norvegicus, UniProt Q05941); format: cell-based
α9α10 nAChRs = α9α10 nAChRs (Rattus norvegicus, UniProt P43144+Q9JLB5); format: cell-based; settings: for selectivity for the α9α10 subtype vs. the α7 subtype: ratio of α7 to α9α10 IC50; for inhibition of α9α10 ACh-gated currents at the probe concentration: 100 nM probe concentration, result in words
[1] = phase 2; cited from earlier work
[2] = rat; cited from earlier work
[3] = cited from earlier work; for tolerance to the antihyperalgesic effect: rat, repeated dosing (7 days)
[4] = rat CCI pain model as printed; cited from earlier work
[5] = cited from earlier work
κ-opioid receptors = κ-opioid receptors (Homo sapiens, UniProt P41145); assay: Affinity for κ-opioid receptors; format: binding; settings: unpublished data
Sequence of κ-opioid receptors (P41145 whole entry): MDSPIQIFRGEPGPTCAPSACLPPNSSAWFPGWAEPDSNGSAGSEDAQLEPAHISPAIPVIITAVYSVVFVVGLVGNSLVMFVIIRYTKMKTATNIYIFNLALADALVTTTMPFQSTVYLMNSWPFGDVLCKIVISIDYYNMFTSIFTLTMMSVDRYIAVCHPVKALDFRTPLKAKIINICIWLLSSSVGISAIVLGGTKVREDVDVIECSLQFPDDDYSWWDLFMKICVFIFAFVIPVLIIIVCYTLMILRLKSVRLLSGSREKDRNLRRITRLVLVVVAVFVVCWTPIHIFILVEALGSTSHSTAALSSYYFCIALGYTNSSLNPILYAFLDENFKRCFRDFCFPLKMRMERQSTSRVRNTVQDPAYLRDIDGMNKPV

5HT3 receptors = target: T1, 5HT3 receptors (Homo sapiens, UniProt P46098); assay: Affinity for 5HT3 receptors; format: binding; settings: unpublished data
T1 sequence (P46098 24-478): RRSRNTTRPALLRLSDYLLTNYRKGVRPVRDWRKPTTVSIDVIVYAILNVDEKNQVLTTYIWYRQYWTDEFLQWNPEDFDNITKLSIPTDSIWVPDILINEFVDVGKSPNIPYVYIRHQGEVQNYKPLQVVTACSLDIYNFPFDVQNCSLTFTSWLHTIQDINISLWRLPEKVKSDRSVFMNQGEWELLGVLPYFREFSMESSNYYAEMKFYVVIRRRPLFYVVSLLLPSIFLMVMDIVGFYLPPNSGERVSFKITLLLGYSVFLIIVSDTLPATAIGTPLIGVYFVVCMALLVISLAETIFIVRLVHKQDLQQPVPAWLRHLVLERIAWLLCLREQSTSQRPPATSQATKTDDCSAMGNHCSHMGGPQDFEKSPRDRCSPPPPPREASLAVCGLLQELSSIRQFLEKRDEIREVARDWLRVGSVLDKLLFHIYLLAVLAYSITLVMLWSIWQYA

GABAA receptors = assay: Interaction with GABAA receptors; settings: unpublished data
GABAB receptors = GABAB receptors (Homo sapiens, UniProt O75899+Q9UBS5); assay: Interaction with GABAB receptors; settings: unpublished data
Sequence of GABAB receptors (Q9UBS5 15-961 limits assumed): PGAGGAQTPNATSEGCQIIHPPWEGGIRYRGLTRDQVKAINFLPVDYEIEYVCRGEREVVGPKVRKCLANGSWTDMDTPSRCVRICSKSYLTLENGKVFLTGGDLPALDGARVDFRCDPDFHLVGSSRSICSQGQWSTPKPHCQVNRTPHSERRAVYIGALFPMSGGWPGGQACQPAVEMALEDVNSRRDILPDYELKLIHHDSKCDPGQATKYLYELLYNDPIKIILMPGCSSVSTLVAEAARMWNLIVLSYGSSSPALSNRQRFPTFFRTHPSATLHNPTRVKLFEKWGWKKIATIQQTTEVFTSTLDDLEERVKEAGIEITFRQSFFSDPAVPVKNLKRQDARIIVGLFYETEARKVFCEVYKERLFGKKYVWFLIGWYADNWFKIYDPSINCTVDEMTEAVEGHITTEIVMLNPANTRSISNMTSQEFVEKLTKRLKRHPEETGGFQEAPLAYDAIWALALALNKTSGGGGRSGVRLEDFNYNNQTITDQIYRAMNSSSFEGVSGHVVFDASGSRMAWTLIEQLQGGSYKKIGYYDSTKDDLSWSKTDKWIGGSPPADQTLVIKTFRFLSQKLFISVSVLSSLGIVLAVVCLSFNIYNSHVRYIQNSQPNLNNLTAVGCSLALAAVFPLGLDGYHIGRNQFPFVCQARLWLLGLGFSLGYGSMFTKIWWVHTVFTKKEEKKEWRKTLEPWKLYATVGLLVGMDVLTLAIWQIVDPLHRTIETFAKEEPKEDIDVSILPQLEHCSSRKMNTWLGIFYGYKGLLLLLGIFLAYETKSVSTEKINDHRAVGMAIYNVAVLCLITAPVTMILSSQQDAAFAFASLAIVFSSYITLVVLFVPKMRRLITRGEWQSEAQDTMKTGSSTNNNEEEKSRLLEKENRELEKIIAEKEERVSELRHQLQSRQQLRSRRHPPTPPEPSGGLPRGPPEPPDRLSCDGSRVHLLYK
Sequence of GABAB receptors (O75899 42-941): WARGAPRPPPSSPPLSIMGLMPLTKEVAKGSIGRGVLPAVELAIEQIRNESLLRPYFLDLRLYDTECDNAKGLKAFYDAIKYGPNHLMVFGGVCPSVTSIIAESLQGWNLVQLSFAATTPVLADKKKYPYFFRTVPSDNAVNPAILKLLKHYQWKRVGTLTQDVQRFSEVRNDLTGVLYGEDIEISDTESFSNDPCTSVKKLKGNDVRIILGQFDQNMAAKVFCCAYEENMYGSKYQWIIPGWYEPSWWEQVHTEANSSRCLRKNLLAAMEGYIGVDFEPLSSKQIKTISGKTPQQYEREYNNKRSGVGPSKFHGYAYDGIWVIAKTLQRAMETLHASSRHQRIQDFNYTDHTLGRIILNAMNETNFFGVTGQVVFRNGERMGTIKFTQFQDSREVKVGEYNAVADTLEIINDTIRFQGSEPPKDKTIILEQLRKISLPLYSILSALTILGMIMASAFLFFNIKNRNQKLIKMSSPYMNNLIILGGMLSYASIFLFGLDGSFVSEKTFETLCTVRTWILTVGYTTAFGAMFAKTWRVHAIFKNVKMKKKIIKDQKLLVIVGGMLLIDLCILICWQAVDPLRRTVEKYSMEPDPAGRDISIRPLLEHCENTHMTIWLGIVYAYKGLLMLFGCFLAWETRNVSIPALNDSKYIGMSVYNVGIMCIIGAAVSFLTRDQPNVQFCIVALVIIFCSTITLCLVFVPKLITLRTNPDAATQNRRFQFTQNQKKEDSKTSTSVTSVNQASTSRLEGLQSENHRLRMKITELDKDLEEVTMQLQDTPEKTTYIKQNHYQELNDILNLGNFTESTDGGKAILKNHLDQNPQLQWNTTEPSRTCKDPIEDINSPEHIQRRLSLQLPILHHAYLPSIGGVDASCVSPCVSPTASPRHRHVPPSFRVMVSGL

Sequence of α7 nAChR (Q05941 23-502): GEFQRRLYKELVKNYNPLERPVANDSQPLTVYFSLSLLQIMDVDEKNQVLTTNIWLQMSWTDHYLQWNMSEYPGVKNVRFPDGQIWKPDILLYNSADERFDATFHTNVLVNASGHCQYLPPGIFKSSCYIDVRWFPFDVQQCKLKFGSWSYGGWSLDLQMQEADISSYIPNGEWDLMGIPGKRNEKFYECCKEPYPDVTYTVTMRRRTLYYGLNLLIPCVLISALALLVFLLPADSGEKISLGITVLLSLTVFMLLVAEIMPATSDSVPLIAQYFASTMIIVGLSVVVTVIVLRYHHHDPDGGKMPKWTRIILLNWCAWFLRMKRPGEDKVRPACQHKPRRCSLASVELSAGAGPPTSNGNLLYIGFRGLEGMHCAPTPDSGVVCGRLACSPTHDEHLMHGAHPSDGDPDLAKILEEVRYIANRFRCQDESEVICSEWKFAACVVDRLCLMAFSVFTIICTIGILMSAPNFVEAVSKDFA
Sequence of α9α10 nAChRs (P43144 26-479): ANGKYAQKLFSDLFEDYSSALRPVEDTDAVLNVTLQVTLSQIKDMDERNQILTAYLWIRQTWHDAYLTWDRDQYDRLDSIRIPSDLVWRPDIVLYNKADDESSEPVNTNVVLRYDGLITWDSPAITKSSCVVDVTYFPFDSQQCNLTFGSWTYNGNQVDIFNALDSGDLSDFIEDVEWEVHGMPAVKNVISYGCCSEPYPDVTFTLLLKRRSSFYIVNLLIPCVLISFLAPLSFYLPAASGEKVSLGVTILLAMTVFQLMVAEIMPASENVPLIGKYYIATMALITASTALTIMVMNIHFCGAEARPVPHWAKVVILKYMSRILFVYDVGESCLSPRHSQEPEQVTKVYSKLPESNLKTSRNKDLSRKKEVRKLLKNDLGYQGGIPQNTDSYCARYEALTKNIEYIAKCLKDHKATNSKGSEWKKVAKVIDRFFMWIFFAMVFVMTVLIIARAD
Sequence of α9α10 nAChRs (Q9JLB5 25-447): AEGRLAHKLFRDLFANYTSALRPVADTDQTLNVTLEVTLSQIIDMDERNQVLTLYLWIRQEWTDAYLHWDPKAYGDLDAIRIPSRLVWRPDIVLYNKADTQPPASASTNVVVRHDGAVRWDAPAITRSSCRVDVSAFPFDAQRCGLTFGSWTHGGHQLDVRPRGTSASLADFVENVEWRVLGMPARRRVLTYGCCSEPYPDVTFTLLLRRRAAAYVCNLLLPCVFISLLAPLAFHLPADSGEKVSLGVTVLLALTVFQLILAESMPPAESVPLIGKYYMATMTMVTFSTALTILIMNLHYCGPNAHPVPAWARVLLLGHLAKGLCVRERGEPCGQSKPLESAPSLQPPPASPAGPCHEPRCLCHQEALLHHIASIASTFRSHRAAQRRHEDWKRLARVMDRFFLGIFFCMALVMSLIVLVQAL

SMILES | IC50 (α7 nAChR) [nM] | IC50 (α9α10 nAChRs) [nM] | analgesic effect in the rat formalin model [1] | efficacious doses versus doses producing toxicity in the rotarod test [2] | effect on mechanical hyperalgesia in the rat CCI model [3] | tolerance to the antihyperalgesic effect [3] | analgesic effect in the rat tail-flick test [5] | inhibition of α9α10 ACh-gated currents at the probe concentration (α9α10 nAChRs) | also measured
c1ccc2c[n+](CCCCCc3cc(CCCCC[n+]4ccc5ccccc5c4)cc(CCCCC[n+]4ccc5ccccc5c4)c3)ccc2c1 [Compound 10d] | 170 | 4.8 | – | – | – | – | – | – | –
Cc1cc[n+](CC#Cc2ccc(-c3ccc(C#CC[n+]4ccc(C)c(C)c4)cc3)cc2)cc1C.[Br-].[Br-] [Compound 7a] | – | – | demonstrated an analgesic effect | efficacy was achieved at doses well below those that produced toxicity | reversed mechanical hyperalgesia in a dose-related manner | not observed | ineffective | – | alleviation of vincristin-induced neuropathic pain [4]: effective; selectivity for the α9α10 subtype vs. the α7 subtype (α9α10 nAChRs): 75 fold
Cc1cc(C)c[n+](CCCC#Cc2cc(C#CCCC[n+]3cc(C)cc(C)c3)c(C#CCCC[n+]3cc(C)cc(C)c3)cc2C#CCCC[n+]2cc(C)cc(C)c2)c1.[Br-].[Br-].[Br-].[Br-] [Compound 11b] | – | – | – | – | – | – | – | nearly complete inhibition | –
c1ccc(-c2ccc[n+](CCCCCc3cc(CCCCC[n+]4cccc(-c5ccccc5)c4)cc(CCCCC[n+]4cccc(-c5ccccc5)c4)c3)c2)cc1 [Compound 10e] | 91 | 3.7 | – | – | – | – | – | – | –
Cc1cc[n+](CCCc2ccc(-c3ccc(CCC[n+]4ccc(C)c(C)c4)cc3)cc2)cc1C.[Br-].[Br-] [Compound 8a] | 6010 | 670 | – | – | – | – | – | – | selectivity for the α9α10 subtype vs. the α7 subtype (α9α10 nAChRs): 9 fold
C(#Cc1cc(C#CCCC[n+]2cccc(-c3ccccc3)c2)c(C#CCCC[n+]2cccc(-c3ccccc3)c2)cc1C#CCCC[n+]1cccc(-c2ccccc2)c1)CCC[n+]1cccc(-c2ccccc2)c1.[Br-].[Br-].[Br-].[Br-] [Compound 11e] | 8.8 | 0.56 | demonstrated an analgesic effect | efficacy was achieved at doses well below those that produced toxicity | reversed mechanical hyperalgesia in a dose-related manner | not observed | ineffective | nearly complete inhibition | affinity for κ-opioid receptors compared to α9α10 nAChRs (κ-opioid receptors): several orders of magnitude lower affinity; affinity for 5HT3 receptors compared to α9α10 nAChRs (5HT3 receptors): several orders of magnitude lower affinity; interaction with GABAA receptors (GABAA receptors): does not interact; interaction with GABAB receptors (GABAB receptors): does not interact
C(#Cc1cc(C#CCCC[n+]2cccc(-c3ccccc3)c2)cc(C#CCCC[n+]2cccc(-c3ccccc3)c2)c1)CCC[n+]1cccc(-c2ccccc2)c1 [Compound 9e] | 185 | 1.7 | – | – | – | – | – | – | –
[Br-].[Br-].[Br-].c1ccc2c(c1)ccc[n+]2CCCCCc1cc(CCCCC[n+]2cccc3ccccc32)cc(CCCCC[n+]2cccc3ccccc32)c1 [Compound 10c] | 1510 | 4.2 | demonstrated an analgesic effect | efficacy was achieved at doses well below those that produced toxicity | reversed mechanical hyperalgesia in a dose-related manner | not observed | ineffective | – | –
Cc1cc(C)c[n+](CCCCCc2cc(CCCCC[n+]3cc(C)cc(C)c3)c(CCCCC[n+]3cc(C)cc(C)c3)cc2CCCCC[n+]2cc(C)cc(C)c2)c1.[Br-].[Br-].[Br-].[Br-] [Compound 12b] | – | – | – | – | – | – | – | nearly complete inhibition | –
